Experiments:
A2780-S cell line = assay: Growth inhibition assay (modified MTT); assay type: cell-based, human; settings: five-day MTT
Method: (§1) The sensitivities of the cell lines to cisplatinum, carboplatinum, and compounds A-F were determined using a growth inhibition assay which was a modified version of the MTT method (modified version of MTT method described in Appendix B).
(§2) The following is a brief description of the eleven different cell lines used in the growth inhibition assay: • The A2780 cell line (1 in FIGS. 1-9) is a human ovarian cell line which is sensitive to cisplatinum and carboplatinum. […] The cor123/cpr (7) cell line is a modified version of the cor123 cell line which has been modified to be resistant to cisplatinum and carboplatinum. • The ccu24 (8) cell line is an epithelial ovarian cancer cell line, developed at the Christie Hospital from a tumour biopsy, and the ccu24/cpr (9) cell line is a modified version of this cell line which is cisplatinum and carboplatinum resistant. • L1210 (10) is a murine leukemia cell line and L1210/M1140 (11) is its platinum drug resistant subline.
(§3) The cell toxicity studies were performed using a modification of the method MTT.^7 The principle of the assay is to assess the growth inhibitory effect of a drug at various doses over a five-day time course. This assay was performed in 96-well microtitre plates. Cells were seeded at densities of 400-1,000 cells per well, depending on the doubling time of the cell line. All cell dilutions were performed in growth medium containing 10% FCS (foetal calf serum).
(§4) Compounds under investigation were dissolved in DMSO (dimethylsulphoxide). Serial dilutions of compound were made into the cell suspension, ensuring that the proportion of DMSO remained below 0.5%. 200 μl of cells and drug mix was added to the 96-well plates in triplicate. The plates were incubated for five days at 5% CO2 and 37° C. After this time, the plates were removed from the incubator and 50 μl of a 3 mg/ml solution of MTT [3-(4,5-dimethyl-thiazol-2-yl)-2,5-diphenyl tetrazolium bromide] was added to each well and incubated in the same conditions for another 3 hours. The medium from each well was aspirated and the formazan crystals were solubilised in 200 μl of DMSO. The plates were read using a Multiskan platereader at 540 nm and 690 nm. Growth inhibition curves were constructed using mean and standard deviation of the triplicate absorbance values and from these curves the IC50 values were calculated.

A2780carb cell line = assay: Growth inhibition assay (modified MTT); assay type: cell-based, human; settings: A2780carb, five-day MTT
Method: as §1, §2, §3, §4

A2780cis cell line = assay: Growth inhibition assay (modified MTT); assay type: cell-based, human; settings: A2780cis, five-day MTT
Method: as §1, §2, §3, §4

ccu24 cell line = assay: Growth inhibition assay (modified MTT); assay type: cell-based, human; settings: five-day MTT
Method: as §1, §2, §3, §4

ccu24/cpr cell line = assay: Growth inhibition assay (modified MTT); assay type: cell-based, human; settings: five-day MTT
Method: as §1, §2, §3, §4

cor123 cell line = assay: Growth inhibition assay (modified MTT); assay type: cell-based, human; settings: five-day MTT
Method: as §1, §2, §3, §4

cor123/cpr cell line = assay: Growth inhibition assay (modified MTT); assay type: cell-based, human; settings: five-day MTT
Method: as §1, §2, §3, §4

mcp1 cell line = assay: Growth inhibition assay (modified MTT); assay type: cell-based, human; settings: five-day MTT
Method: as §1, §2, §3, §4

mcp8 cell line = assay: Growth inhibition assay (modified MTT); assay type: cell-based, human; settings: five-day MTT
Method: as §1, §2, §3, §4

L1210 cell line = assay: Growth inhibition assay (modified MTT); assay type: cell-based, murine; settings: five-day MTT
Method: as §1, §2, §3, §4

L1210/M1140 cell line = assay: Growth inhibition assay (modified MTT); assay type: cell-based, murine; settings: five-day MTT
Method: as §1, §2, §3, §4

[1] = test system: parental and platinum-resistant cell lines; assay: Comet assay, DNA cross-linking, summary of FIGS. 1-9; assay type: cell-based; settings: for DNA cross-linking in parental cell lines: parental (platinum-sensitive) A2780, L1210 and cor123 cell lines; for DNA cross-linking in parental cell lines / DNA cross-linking in platinum-resistant cell lines: FIGS. 1 and 2
Method: (§5) Preliminary studies have been carried out to investigate the mechanism underlying this increased sensitivity. These studies were carried out using the Comet assay (described in Appendix C), which measures damage to DNA. The results are shown in FIGS. 1 (cisplatinum), 2 (carboplatinum), 3 to 8 (compounds A-F) and 9 (phenylgoldtriphenylphospine, PAuP).
(§6) DNA damage was measured by the single cell gel electrophoresis (SCGE) assay or “Comet assay”, originally developed by Ostling and Johnson^8. This is a method for determining the extent of DNA damage and repair capacity within individual cells.^9-11 It has previously been shown that this technique can be used to investigate the mechanism of action of different DNA damaging agents.^12
(§7) Cells were trypsinised, suspended in 0.5 ml of ice cold fresh medium and transferred into plastic 24-well dishes prior to embedding in agarose. For the cross-linking studies treated and control samples were chilled on ice (to prevent any repair of DNA damage) and irradiated to a dose of 20 Gy in a Caesium-137 source (0.4 Gy/min). Control, (unirradiated, non-drug treated cells) were maintained on ice in the same manner as treated samples.
(§8) Glass microscope slides, frosted at one end, were pre-coated with 1% normal agarose in distilled water. These slides were allowed to air dry overnight prior to use. A 1% low melting point agarose (LMP) mixture in PBS was melted and held at 45° C. 1 ml of LMP was then added to 0.5 ml of cell suspension on ice and the resultant mixture was pipetted onto a pre-coated glass microscope slide and allowed to set for 1-2 minutes before being transferred to an ice tray. The slides were immersed in ice cold lysis solution (100 mM EDTA, 10 mM Tris-HCl, 1% Triton ×100, 1% DMSO, 2.5M NaCl) for 1 hr, and washed three times by immersion in fresh double distilled water for 15 minutes.
(§9) Slides were then placed onto a flat bed electrophoresis tank and covered (5-6 mm) with alkali unwinding solution (50 mM NaOH, 1 mM EDTA buffered to pH 12.5) and left under subdued lighting for 45 minutes to allow the DNA to unwind before being subjected to electrophoresis at 0.6V/cm for 25 minutes. Each slide was rinsed with 2×1 ml of 0.4M Tris-HCl, pH 8.0 and allowed to dry in air. The dried slides were then rehydrated for 20 minutes with double distilled water, 2×1 ml of propidium iodide solution (2.5 μg/ml) was added and staining was allowed to proceed for 15 minutes. Slides were then immersed in 1 litre of double distilled water for 1 hour to reduce excess background staining. The slides were cover slipped and then examined at 250× magnification under an epifluorescent microscope (Zeiss-Jenamed) using green light from a 50 watt mercury source with a 580 nm reflector and a 590 nm barrier filter set. Images were captured using an attached Sony HAD-1 interline CCD camera and Komet software analysis package (Kinetic Imaging). Twenty-five images from each of two duplicate slides were captured and analysed and the individual “comet moments” as defined by Olive et al^13, were calculated. The total fluorescence of the image represents the amount of DNA present and the length of the image, measured in pixels, represents the length of migration of the DNA. The head and tail areas of the image were identified and the intensity of each was determined. The tail moment is calculated by multiplying the fraction of DNA present in the tail by half the length of the tail.

A2780/mcp8 = assay: Comet assay, DNA crosslinking; assay type: cell-based, human; settings: ratio >1 = more cross-linking in parental than in platinum-resistant line
Method: as §5
(§10) Table 3 illustrates the results of the following calculation using the DNA cross-linking results obtained in the Comet assays:
as §6, §7, §8, §9

A2780carb = assay: Comet assay, DNA crosslinking; assay type: cell-based, human; settings: ratio >1 = more cross-linking in parental than in platinum-resistant line
Method: as §5, §10, §6, §7, §8, §9

A2780cis = assay: Comet assay, DNA crosslinking; assay type: cell-based, human; settings: ratio >1 = more cross-linking in parental than in platinum-resistant line
Method: as §5, §10, §6, §7, §8, §9

A2780mcp1 = assay: Comet assay, DNA crosslinking; assay type: cell-based, human; settings: ratio >1 = more cross-linking in parental than in platinum-resistant line
Method: as §5, §10, §6, §7, §8, §9

ccu24 = assay: Comet assay, DNA crosslinking; assay type: cell-based, human; settings: ratio >1 = more cross-linking in parental than in platinum-resistant line
Method: as §5, §10, §6, §7, §8, §9

cor123 = assay: Comet assay, DNA crosslinking; assay type: cell-based, human; settings: ratio >1 = more cross-linking in parental than in platinum-resistant line
Method: as §5, §10, §6, §7, §8, §9

L1210 = assay: Comet assay, DNA crosslinking; assay type: cell-based, murine; settings: ratio >1 = more cross-linking in parental than in platinum-resistant line
Method: as §5, §10, §6, §7, §8, §9

eleven cell lines = assay: Growth inhibition assay (modified MTT), summary over cell lines; assay type: cell-based, mouse and human; settings: text reference to Table 1; cell line not stated
Method: as §1
as §2, with “subline. […]” for “subline.”
Compounds under investigation were dissolved in DMSO (dimethylsulphoxide). […] The plates were read using a Multiskan platereader at 540 nm and 690 nm. Growth inhibition curves were constructed using mean and standard deviation of the triplicate absorbance values and from these curves the IC50 values were calculated.

[2] = Table 2, further series of assays
[3] = Table 2, further series of assays, A2780/mcp1
[4] = Table 2, further series of assays, A2780/mcp8
[5] = Table 1, first series of assays
[6] = Table 1, first series of assays, mcp1
[7] = Table 1, first series of assays, mcp8

| Structure (SMILES) | IC50 (A2780-S cell line; [2]) [µM] | IC50 (A2780carb cell line; [2]) [µM] | IC50 (A2780cis cell line; [2]) [µM] | IC50 (ccu24 cell line; [2]) [µM] | IC50 (ccu24/cpr cell line; [2]) [µM] | IC50 (cor123 cell line; [2]) [µM] | IC50 (cor123/cpr cell line; [2]) [µM] | IC50 (mcp1 cell line; [3]) [µM] | IC50 (mcp8 cell line; [4]) [µM] | IC50 (L1210 cell line; [2]) [µM] | IC50 (L1210/M1140 cell line; [2]) [µM] | IC50 (A2780-S cell line; [5]) [µM] | IC50 (A2780cis cell line; [5]) [µM] | DNA crosslinking (Comet) ratio (A2780/mcp8) | DNA crosslinking (Comet) ratio (A2780carb) | DNA crosslinking (Comet) ratio (A2780cis) | DNA crosslinking (Comet) ratio (A2780mcp1) | DNA crosslinking (Comet) ratio (ccu24) | DNA crosslinking (Comet) ratio (cor123) | DNA crosslinking (Comet) ratio (L1210) | also measured |
| --- | --- | --- | --- | --- | --- | --- | --- | --- | --- | --- | --- | --- | --- | --- | --- | --- | --- | --- | --- | --- | --- |
| N.N.O=C([O-])C1(C(=O)[O-])CCC1.[Pt+2] [Carboplatin, carboplatin, reference compound] | 1.59 | 32.1 | 34.6 | 5.82 | 27.2 | 5.35 | 29.8 | 24.8 | 26.8 | 15.3 | 47.8 | – | – | – | – | – | – | – | – | – | DNA cross-linking in parental cell lines [1]: extensive DNA cross-linking; DNA cross-linking in platinum-resistant cell lines [1]: much less cross-linking |
| [Au+].[c-]1ccccc1.c1ccc([PH+](c2ccccc2)c2ccccc2)cc1 [PAuP, phenylgoldtriphenylphospine, reference compound] | – | – | – | – | – | – | – | – | – | – | – | > 10 | > 10 | 1.33 | 1.33 | 1.00 | 1.33 | 1.00 | 0.75 | 1.33 | ID50 (cytotoxicity) (eleven cell lines): > 10000 mu; level of cross-linking ([1]; FIG. 9, compared to the di-gold compounds): low compared to the di-gold compounds |
| c1ccc([PH]([Au][CH2]c2ccc[c]([Au][PH](c3ccccc3)(c3ccccc3)c3ccccc3)c2)(c2ccccc2)c2ccccc2)cc1 [E] | 0.0112 | 0.0009 | 0.0007 | 0.0135 | 0.0054 | 0.0211 | 0.0044 | 0.0039 | 0.0047 | 0.0356 | 0.0085 | 0.0089 | 0.0004 | 0.48 | 0.40 | 0.39 | 0.41 | 0.46 | 0.43 | 0.40 | IC50 (A2780carb cell line; [5]): 0.0006 µM; IC50 (ccu24 cell line; [5]): 0.0102 µM; IC50 (ccu24/cpr cell line; [5]): 0.0024 µM; IC50 (cor123 cell line; [5]): 0.0177 µM; IC50 (cor123/cpr cell line; [5]): 0.0014 µM; IC50 (mcp1 cell line; [6]): 0.0009 µM; IC50 (mcp8 cell line; [7]): 0.0009 µM; IC50 (L1210 cell line; [5]): 0.0325 µM; IC50 (L1210/M1140 cell line; [5]): 0.0053 µM |
| N.N.[Cl][Pt][Cl] [Cisplatin, cisplatin, reference compound] | – | – | – | – | – | – | – | – | – | – | – | 1.32 | 30.5 | 5.70 | – | 5.65 | 5.40 | 4.65 | 5.72 | 3.37 | IC50 (A2780carb cell line; [5]): 27.6 µM; IC50 (ccu24 cell line; [5]): 4.32 µM; IC50 (ccu24/cpr cell line; [5]): 24.9 µM; IC50 (cor123 cell line; [5]): 3.43 µM; IC50 (cor123/cpr cell line; [5]): 26.7 µM; IC50 (mcp1 cell line; [6]): 19.9 µM; IC50 (mcp8 cell line; [7]): 24.4 µM; IC50 (L1210 cell line; [5]): 12.1 µM; IC50 (L1210/M1140 cell line; [5]): 44.9 µM; DNA cross-linking in parental cell lines [1]: extensive DNA cross-linking; DNA cross-linking in platinum-resistant cell lines [1]: much less cross-linking; DNA crosslinking (Comet) ratio, all resistant cell lines ([1]; summary of Table 3): a ratio greater than unity |
| [Au][c]1ccc[c]([Au])c1.c1ccc(P(c2ccccc2)c2ccccc2)cc1.c1ccc(P(c2ccccc2)c2ccccc2)cc1 [B] | 0.0121 | 0.0007 | 0.0006 | 0.0218 | 0.0051 | 0.0158 | 0.0043 | 0.0035 | 0.0054 | 0.0296 | 0.0072 | 0.0098 | 0.0002 | 0.39 | 0.37 | 0.36 | 0.40 | 0.39 | 0.38 | 0.47 | IC50 (A2780carb cell line; [5]): 0.0004 µM; IC50 (ccu24 cell line; [5]): 0.0187 µM; IC50 (ccu24/cpr cell line; [5]): 0.0021 µM; IC50 (cor123 cell line; [5]): 0.0126 µM; IC50 (cor123/cpr cell line; [5]): 0.0012 µM; IC50 (mcp1 cell line; [6]): 0.0004 µM; IC50 (mcp8 cell line; [7]): 0.0004 µM; IC50 (L1210 cell line; [5]): 0.0266 µM; IC50 (L1210/M1140 cell line; [5]): 0.0041 µM |
